Molecules are shown by their SMILES.

This note sets out measurements from patent US9487488B2, “Sulfonamide compound” (MITSUBISHI TANABE PHARMA CORPORATION, priority 2012, dated 2016).

human TRPM8, sequence (Q7Z2W7 whole entry): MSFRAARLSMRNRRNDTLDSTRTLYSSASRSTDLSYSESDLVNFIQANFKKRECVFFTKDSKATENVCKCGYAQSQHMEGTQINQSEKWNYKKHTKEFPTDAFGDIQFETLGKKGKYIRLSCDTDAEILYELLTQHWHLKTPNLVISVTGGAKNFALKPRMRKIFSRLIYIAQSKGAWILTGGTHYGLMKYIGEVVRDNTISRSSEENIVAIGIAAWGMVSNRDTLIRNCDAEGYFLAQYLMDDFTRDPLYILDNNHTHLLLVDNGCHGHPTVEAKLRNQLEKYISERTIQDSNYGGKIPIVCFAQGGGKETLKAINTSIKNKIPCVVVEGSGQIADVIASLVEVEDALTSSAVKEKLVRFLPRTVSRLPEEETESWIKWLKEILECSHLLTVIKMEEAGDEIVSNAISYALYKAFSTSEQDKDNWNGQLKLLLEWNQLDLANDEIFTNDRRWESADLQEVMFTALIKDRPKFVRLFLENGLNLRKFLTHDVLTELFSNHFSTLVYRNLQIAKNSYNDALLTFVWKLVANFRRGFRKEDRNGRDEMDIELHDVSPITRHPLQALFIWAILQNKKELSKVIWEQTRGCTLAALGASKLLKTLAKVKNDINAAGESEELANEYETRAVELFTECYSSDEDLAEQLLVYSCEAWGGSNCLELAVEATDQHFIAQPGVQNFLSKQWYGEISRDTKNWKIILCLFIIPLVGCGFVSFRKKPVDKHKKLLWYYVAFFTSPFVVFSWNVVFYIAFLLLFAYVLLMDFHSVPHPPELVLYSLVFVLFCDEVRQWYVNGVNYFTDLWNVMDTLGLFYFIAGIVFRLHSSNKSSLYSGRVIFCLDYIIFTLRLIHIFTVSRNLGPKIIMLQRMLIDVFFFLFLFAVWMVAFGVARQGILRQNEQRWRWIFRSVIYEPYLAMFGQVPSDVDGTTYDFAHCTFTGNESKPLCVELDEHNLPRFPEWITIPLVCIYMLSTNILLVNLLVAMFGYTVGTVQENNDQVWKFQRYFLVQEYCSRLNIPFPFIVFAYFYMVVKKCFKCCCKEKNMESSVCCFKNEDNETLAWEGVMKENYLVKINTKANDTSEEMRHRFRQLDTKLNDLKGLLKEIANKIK

The target in the assay is human TRPM8 (Homo sapiens (Human), UniProt Q7Z2W7). Briefly: TRPM8 inhibition assay (menthol-induced calcium influx, FDSS). It is filed as cell-based. To be noted: HEK293 cells stably expressing human TRPM8; 100 μmol/L menthol; Fura-2AM calcium signal; read-out: TRPM8 Blocking Test (IC50/nmol/L). Here is the method:
The functional activity of a test compound was determined by measuring change in intracellular calcium concentration using a calcium sensitive fluorescent dye. The change in fluorescent signal was measured by the cell imaging technology by Hamamatsu Photonics's Functional Drug Screening System (FDSS).
HEK293 cells stably expressing human TRPM8 were grown in a flask. On assay day, the culture medium was removed from the flask, and cells were washed with phosphate-buffered saline (PBS) and harvested with PBS containing 2 mmol/L of ethylenediaminetetraacetic acid disodium salt (EDTA-2Na). […] Subsequently, suspended 20,000 to 50,000 cells per well were incubated with a test compound (at varying concentrations) in each well at 37° C. for 20 minutes. Change in intracellular calcium concentration evoked by 100 μmol/L of menthol was measured for 2 minutes using FDSS. […] The concentration-response curve was generated using the average of quadruplicate wells for each data point.
With `Cc1cc(S(=O)(=O)N(Cc2ccc(OC(F)(F)F)cc2)c2nc(C3CC3)c3ccccc3c2C)ccc1C(=O)O` [Example 40, 4-({(1-cyclopropyl-4-methylisoquinolin-3-yl)[4-(trifluoromethoxy)benzyl]amino}sulfonyl)-2-methylbenzoic acid], the IC50 turned out to be 6.5 nmol/L. As for `CNc1cc(S(=O)(=O)N(Cc2ccc(OC(F)(F)F)cc2)c2ncc3ccccc3c2C2CC2)ccc1C(=O)O` [Example 41, 4-({(4-cyclopropylisoquinolin-3-yl)[4-(trifluoromethoxy)benzyl]amino}sulfonyl)-2-(methylamino)benzoic acid], the figure is 1.1 nmol/L; as for `Cc1cc(S(=O)(=O)N(Cc2ccc(OC(F)(F)F)cc2)c2ncc3ccccc3c2C2CC2)cc(F)c1C(=O)O` [Example 42], 1.5 nmol/L; as for `O=C(O)c1ccc(S(=O)(=O)N(Cc2ccc(OC(F)(F)F)cc2)c2ncc3ccccc3c2C2CC2)cc1C1CC1` [Example 43], 10.1 nmol/L.

Turning to `CC(C)c1cc(S(=O)(=O)N(Cc2ccc(OC(F)(F)F)cc2)c2ncc3ccccc3c2C2CC2)ccc1C(=O)O` [Example 44], the IC50 amounted to 5.6 nmol/L.

With `CN(C)c1cc(S(=O)(=O)N(Cc2ccc(OC(F)(F)F)cc2)c2ncc3ccccc3c2C2CC2)ccc1C(=O)O` [Example 45], the IC50 was found to be 2.9 nmol/L. As for `Cc1cc(S(=O)(=O)N(Cc2ccc(OC(F)(F)F)cc2)c2ncc3ccccc3c2C(F)(F)F)ccc1C(=O)O` [Example 46], the figure is 3.3 nmol/L; as for `O=C(O)c1ccc(S(=O)(=O)N(Cc2ccc(OC(F)(F)F)cc2)c2ncc3ccccc3c2C2CC2)cc1Cl` [Example 47], 3.8 nmol/L; as for `O=C(O)c1ccc(S(=O)(=O)N(Cc2ccc(OC(F)(F)F)cc2)c2ncc3ccccc3c2C2CC2)cc1Br` [Example 48], 6.3 nmol/L. As for `O=C(O)c1ccc(S(=O)(=O)N(Cc2ccc(OC(F)(F)F)cc2)c2ncc3ccccc3c2C2CC2)cc1C(F)(F)F` [Example 49], the figure is 18.1 nmol/L.

On to `COc1cc(S(=O)(=O)N(Cc2ccc(OC(F)(F)F)cc2)c2ncc3ccccc3c2C2CC2)ccc1C(=O)O` [Example 50], for which the IC50 stood at 11.7 nmol/L. As to `Cc1cc(S(=O)(=O)N(Cc2ccc(OC(F)(F)F)cc2)c2ncc3ccccc3c2C2CC2)cc(C)c1C(=O)O` [Example 51], the IC50 was 10.9 nmol/L. As for `O=C(O)c1ccc(S(=O)(=O)N(Cc2ccc(OC(F)(F)F)cc2)c2ncc3ccccc3c2C2CC2)cc1F` [Example 52], the figure is 1 nmol/L. As for `CCc1cc(S(=O)(=O)N(Cc2ccc(OC(F)(F)F)cc2)c2ncc3ccccc3c2C(F)(F)F)ccc1C(=O)O` [Example 53], the figure is 3 nmol/L. In the case of `CCc1cc(S(=O)(=O)N(Cc2ccc(OC(F)(F)F)cc2)c2ncc3ccccc3c2C2CC2)ccc1C(=O)O` [Example 54], the IC50 was 2.1 nmol/L. As for `O=C(O)c1ccc(S(=O)(=O)N(Cc2ccc(OC(F)(F)F)cc2)c2ncc3ccccc3c2C2CC2)cc1-c1ccccc1` [Example 55], the figure is 13.6 nmol/L; as for `CC(C)c1cc(S(=O)(=O)N(Cc2ccc(OC(F)(F)F)cc2)c2ncc3ccccc3c2C(F)(F)F)ccc1C(=O)O` [Example 56], 6.6 nmol/L. As for `CCCc1cc(S(=O)(=O)N(Cc2ccc(OC(F)(F)F)cc2)c2ncc3ccccc3c2C2CC2)ccc1C(=O)O` [Example 57], the figure is 2.5 nmol/L; as for `O=C(O)c1ccc(S(=O)(=O)N(Cc2ccc(OC(F)(F)F)cc2)c2ncc3ccccc3c2C2CC2)cc1N1CCCC1` [Example 58], 4.6 nmol/L. With `O=C(O)c1ccc(S(=O)(=O)N(Cc2ccc(OC(F)(F)F)cc2)c2ncc3ccccc3c2C2CC2)cc1N1CCCCC1` [Example 59], the IC50 amounted to 10.3 nmol/L. With `O=C(O)c1ccc(S(=O)(=O)N(Cc2ccc(OC(F)(F)F)cc2)c2ncc3ccccc3c2C2CC2)cc1N1CCOCC1` [Example 60], the IC50 came out at 19.6 nmol/L.
